Results published in PubChem BioAssay AID652082 (The Scripps Research Institute Molecular Screening Center, 2013).
Activity calls are given as the source filed them. No rule for the calls is given here.

What follows are compounds tested against Kappa-type opioid receptor (Homo sapiens) (UniProt P41145) (assay: kappa opioid receptor blockers, retest – cell-based, fluorescence, confirmation (AID 652082)). Conditions: OPRK1 cell line, fluorescence antagonist read-out; at 9 µM; hits give high values.
Chain of Kappa-type opioid receptor (Homo sapiens) (P41145 whole entry, looked up): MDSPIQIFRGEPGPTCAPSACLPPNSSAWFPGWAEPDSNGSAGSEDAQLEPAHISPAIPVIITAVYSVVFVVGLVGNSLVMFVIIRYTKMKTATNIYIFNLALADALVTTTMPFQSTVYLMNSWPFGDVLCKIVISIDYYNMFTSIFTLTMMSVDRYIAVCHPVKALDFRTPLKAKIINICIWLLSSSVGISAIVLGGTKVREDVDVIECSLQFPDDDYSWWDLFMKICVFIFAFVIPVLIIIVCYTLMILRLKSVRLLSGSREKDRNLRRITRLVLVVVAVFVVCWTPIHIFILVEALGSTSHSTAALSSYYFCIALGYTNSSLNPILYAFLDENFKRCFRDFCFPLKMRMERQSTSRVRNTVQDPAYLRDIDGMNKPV
In the case of `O=C(NNC(=O)C(F)(F)F)c1ccc[nH]1`, the inhibition is reported as 9.13% (inactive). An inhibition of 58.8% was found for `Oc1c(Cl)cc(Cl)cc1C1Nc2cc(Cl)c(C(F)(F)F)cc2N1` (stereo unspecified) in this work. For `O=[N+]([O-])c1ccc(N2CCc3ccccc32)cc1`, the inhibition was 17.4% (inactive). An inhibition of 95.2% was found for `CCOC(=O)c1cc(C(=O)OC)c(C)nc1N1CCC(NC2CCCCC2O)CC1` (stereo unspecified) in this work. With `C=CCn1c(-c2sc3nnc(-c4ccccc4)c(-c4ccccc4)c3c2N)n[nH]c1=S` the inhibition was 30.5% (inactive). An inhibition of 57.8% was found for `COC(=O)/C=C1\SC(=Nc2ccc(Cl)cc2)N(c2ccc(Cl)cc2)C1=O` in this work. In the case of `O=C(Nc1ccc([N+](=O)[O-])cc1)Nc1csc(-c2cccnc2)n1`, the inhibition is reported as -2.3% (inactive). For `CCOC(=O)c1ccc(N2CC3CCCCN3C2c2cccc(OC)c2O)cc1` (stereo unspecified), the inhibition was 49% (inactive). In the case of `O=c1c2cc(-c3ccccc3)sc2nnn1/N=C/c1cccs1`, the inhibition is reported as 3.84% (inactive). In the case of `Brc1ccc(-c2csc(Nc3ccncc3)n2)cc1`, the inhibition is reported as 34.9% (inactive). For `O=[N+]([O-])c1c(Sc2ccc(Cl)cc2)ccc2nsnc12`, the inhibition was 37.2% (inactive). An inhibition of 62.9% was found for `O=C(Nc1ccc(F)c(Cl)c1)c1cc(Br)ccc1O` in this work. With `CS(=O)(=O)/C(C#N)=C\c1ccc(Cl)s1` the inhibition was 4.17% (inactive). An inhibition of 71.3% was found for `O=[N+]([O-])c1ccc(N/N=C/c2ccc(-c3cccs3)s2)nc1` in this work. For `CC(=O)N1CCC(C(=O)O/N=C(\N)c2ccc(Cl)cc2)CC1`, the inhibition was -11.1% (inactive). `C#Cc1cccc(NC(=O)c2sc3nc4c(c(-c5cccs5)c3c2N)CCCC4)c1` was tested, and the inhibition was 31.7% (inactive). An inhibition of 82.8% was found for `O=[N+]([O-])c1ccc(-c2ccc(/C=N/Nc3ccccc3)o2)cc1` in this work. With `COc1cccc(C(=O)c2sc3nsc(SCc4ccc(F)cc4)c3c2N)c1` the inhibition was 2.74% (inactive). With `CCCCCCCCCCCC(=O)ON1C(=O)CCC1=O` the inhibition was 36.2% (inactive). In the case of `CN(C)c1cc(NC(=O)Nc2ccccc2)c2ccccc2n1`, the inhibition is reported as 43.7% (inactive). For `NC(=NC(=O)c1cccc(C(F)(F)F)c1)c1ccc(C(F)(F)F)cn1`, the inhibition was 41.2% (inactive). With `CCOC(=O)C1CCN(Cc2cccc(NC(=O)c3cccs3)c2)CC1` the inhibition was 0.7% (inactive). An inhibition of 62.5% was found for `N#Cc1cccnc1NNC(=O)COCC(=O)O` in this work. `c1ccc(-c2cc3ncnc(NCc4ccc5c(c4)OCO5)c3s2)cc1` was tested, and the inhibition was -5.98% (inactive). `O=C(/C=C/c1cc(-c2ccccc2)c(C(F)(F)F)s1)c1cccs1` was tested, and the inhibition was 20.3% (inactive). An inhibition of 58.9% was found for `Cn1c(=O)c2cc3cc(Cl)ccc3nc2c2c(=O)n(-c3ccccc3)c(=O)n(-c3ccccc3)c21` in this work. In the case of `Clc1ccc2c(Nc3ccc4c(c3)OCO4)ccnc2c1`, the inhibition is reported as 30% (inactive). An inhibition of 58.2% was found for `CN(C)c1cccc2c1c(NC(=O)Nc1ccc(OCc3ccccc3)cc1)nn2C` in this work. For `COC(=O)c1cnn(-c2ccc(Cl)cc2)c1C=C(C#N)C#N`, the inhibition was 3.67% (inactive). An inhibition of 59.6% was found for `COc1ccccc1NC(=O)NCCN1CCN(Cc2ccccc2)CC1` in this work. An inhibition of 58.7% was found for `O=C(N/C(=C\c1ccc(-c2ccc([N+](=O)[O-])cc2)o1)c1nc2ccccc2[nH]1)c1ccccc1` in this work. An inhibition of 79.5% was found for `CCCCCC[n+]1ccccc1/C=C/c1ccc(N(C)C)cc1` in this work. In the case of `CCOC(=O)c1cn[nH]c1NC(=S)Nc1cccc(C(F)(F)F)c1`, the inhibition is reported as 46.6% (inactive). For `O=[N+]([O-])c1ccc(N/N=C2\CCOc3ccc(F)cc32)cc1`, the inhibition was 25.4% (inactive). `CC(CCC(C)OC(=O)c1ccccc1C(=O)O)OC(=O)c1ccccc1C(=O)O` (stereo unspecified) was tested, and the inhibition was 7.76% (inactive). `CSc1sc(C(=O)NC(=O)Nc2ccc(Cl)cc2)c2c1-c1nocc1CC2` was tested, and the inhibition was 15.4% (inactive). An inhibition of 82.9% was found for `O=[N+]([O-])c1ccc(C2=NN(c3ccccc3)C(c3ccco3)C2)cc1` (stereo unspecified) in this work. `N#Cc1c(S/C=C(\O)c2cc3ccccc3o2)nc2c(c1C(F)(F)F)CCCC2` was tested, and the inhibition was 15.3% (inactive). `CC(=O)Nc1onc(C)c1-c1nc(-c2ccc(Cl)cc2Cl)cs1` was tested, and the inhibition was -1.54% (inactive). With `COc1cccc(/C=C(\C#N)c2ccc([N+](=O)[O-])cc2)c1OC` the inhibition was 34.5% (inactive). With `CCOC(=O)C1CCN(Cc2cccc(NC(=O)c3ccco3)c2)CC1` the inhibition was 35.5% (inactive). In the case of `Cc1ccc(/C=c2\sc3nc4ccccc4n3c2=O)o1`, the inhibition is reported as 5.32% (inactive). An inhibition of 59.5% was found for `COc1ccccc1C1CCN(Cc2ccc3c(c2)CCC(C)(C)O3)CC1` in this work. An inhibition of 79% was found for `O=C(c1cnn(-c2ccc(Cl)cc2)c1C(F)(F)F)N1CCN(c2ncnc3ccsc23)CC1` in this work. An inhibition of 59.2% was found for `O=C(Nc1ccc(Cl)cc1Cl)c1cc([N+](=O)[O-])cc2c1-c1ccc([N+](=O)[O-])cc1C2=O` in this work. In the case of `S=C(NNc1c(Cl)cncc1Cl)Nc1ccc(Cl)cc1Cl`, the inhibition is reported as 51.8% (inactive). For `O=C(O)C(F)(F)C(F)(F)C(=O)NCc1cccc(Cl)c1`, the inhibition was 0.14% (inactive). `O=C1c2ccc(Cl)c3c(N4CCSCC4)ccc(c23)C(=O)N1c1ccccc1` was tested, and the inhibition was 9.35% (inactive). For `COc1ccc(OS(=O)(=O)c2sc(Br)cc2Br)cc1`, the inhibition was 36.2% (inactive). With `CC1COC(c2cccc([N+](=O)[O-])c2)N1` (stereo unspecified) the inhibition was -9.85% (inactive). With `COc1ccc([N+](=O)[O-])c(S(=O)(=O)c2ccc(Cl)cc2)n1` the inhibition was 18.1% (inactive). `Nc1c(C(=O)c2ccccc2)sc2nsc(SCCN3CCCC3)c12` was tested, and the inhibition was 43.2% (inactive). An inhibition of 76.8% was found for `CCCCNc1ccc2c3c(cccc13)C(=O)N(CCCC)C2=O` in this work. An inhibition of 77.2% was found for `Nc1c(C(=O)N/N=C/c2ccc3c(c2)OCO3)sc2nnc(-c3ccccc3)c(-c3ccccc3)c12` in this work. `C=CCNC(=S)NNC(=O)c1oc2nc(-c3ccc(Cl)cc3)cc(-c3ccccc3)c2c1N` was tested, and the inhibition was 11.6% (inactive). `COC(=O)c1ccc(/C=C2\C(=O)Nc3ccccc32)n1-c1ccc(F)cc1` was tested, and the inhibition was 12% (inactive). An inhibition of 68.6% was found for `COC(=O)c1cc(-c2ccc(OC)cc2)c(-c2ccc(OC)cc2)s1` in this work. An inhibition of 73.3% was found for `COc1cc([N+](=O)[O-])c(OC)cc1SCc1n[nH]c(=S)n1-c1ccc(C)cc1` in this work. An inhibition of 80.7% was found for `Clc1ccc2nc3c(nc2c1)Nc1ccccc1S3` in this work. `CN(C)c1ccc(-n2nnnc2SCc2ccc(Cl)cc2)cc1` was tested, and the inhibition was 26% (inactive). `CC(=O)c1sc2nc(-c3cccs3)cc(C(F)(F)F)c2c1N` was tested, and the inhibition was 11.3% (inactive). In the case of `CSc1ccc(/C=C/c2onc(C)c2[N+](=O)[O-])s1`, the inhibition is reported as 23% (inactive). For `N#Cc1cccc(C#N)c1Oc1ccc(N)cc1`, the inhibition was -6.85% (inactive). An inhibition of 60.3% was found for `O=[N+]([O-])c1ccc(-c2ccc(/C=N/NC(=S)Nc3cccc(F)c3)o2)cc1` in this work. For `CCOC(=O)[C@@H](N)CCSC`, the inhibition was -3.43% (inactive). For `CCN(CC)c1ccc(/C=C/c2ccc([N+](=O)[O-])cc2C#N)cc1`, the inhibition was 49.6% (inactive).
